The values that follow come from patent US6255317A, “Cholesterol biosynthesis inhibitors” (Hanwha Chemical Corporation, priority 1998, dated 2001).

The structures appear in SMILES notation. Where two headings read alike, the source gives them in different places.

Series [1] deals with human liver HepG2 cell line. Kind of series: Cholesterol biosynthesis in cultured human liver cell line HepG2 ([1,2-14C]acetate). The class given is cell-based. Particulars: compared with AY9944, comparative drug. As for the experimental part:
Cultured human liver HepG2 cell line was grown on RPMI (Rosewell park Memorial Institute) 1640 culture medium containing 10% […] until 60% of monolayer are formed in a 60 mm culture dish. After replacing the medium with 3 ml of a fresh culture medium containing 10%(v/v) LPDS (Fetal calf lipoprotein-deficient serum), the cells were further grown for 48 hours until 90% of cultivation degree appear. The culture medium was removed and the cell was then washed with PBS. 2 ml of culture medium containing compound no. 8 (final concentration 100 μM) and AY-9944 (final concentration 1 μM) were added thereto. Then, the medium was cultivated at 37° C. for 1 hour under the condition of 95% air/5% carbonic acid gas. AY-9944 which is an inhibitor for sterol 7-reductase was used as a control drug for assuring the present experimental procedure on the inhibition of cholesterol biosynthesis. Thereafter, 3 μCi of [1 ,2-^14 C]acetate (72 mCi/mmol) were added thereto. The cultivation was continued for 2 hours so that the isotope is introduced into the cell and used as a precursor for sterol to be synthesized. Then, the culture medium was completely removed and washed with PBS twice and the cells were collected by scratching. 10 μg of cholesterol, 10 μg of lanosterol and [^3 H]cholesterol (30,000 dpm) were added thereto, and saponification reaction was carried out at 70° C. for an hour by adding 7.5% of methanolic KOH solution. Unsaponified sterol was removed by extracting them three times with 3 ml of petroleum ether and dried with nitrogen purging. The dried samples were redissolved in 200 μl of chloroform. An aliquot of the samples was loaded onto Silicagel 60F thin layer plate and then separated using ethyl acetate/hexane 25/75 (v/v) as the developing solvent. The thin layer film was developed by exposure to Amersham Hyperfilm at -70° C. for 7 days. Cholesterol band were confirmed by comparing the band appeared in the film and that appeared in the iodine-stained thin layer. After scratching the cholesterol band, it was quantified by a liquid scintillation counter.

A further series concerns the target T1, sterol 14-reductase (Rattus norvegicus, UniProt A0ACM8Q6X4).
T1 construct: to give a microsome which was used as an enzyme source of sterol 14-reductase; from tissue
T1 sequence (A0ACM8Q6X4 1-418): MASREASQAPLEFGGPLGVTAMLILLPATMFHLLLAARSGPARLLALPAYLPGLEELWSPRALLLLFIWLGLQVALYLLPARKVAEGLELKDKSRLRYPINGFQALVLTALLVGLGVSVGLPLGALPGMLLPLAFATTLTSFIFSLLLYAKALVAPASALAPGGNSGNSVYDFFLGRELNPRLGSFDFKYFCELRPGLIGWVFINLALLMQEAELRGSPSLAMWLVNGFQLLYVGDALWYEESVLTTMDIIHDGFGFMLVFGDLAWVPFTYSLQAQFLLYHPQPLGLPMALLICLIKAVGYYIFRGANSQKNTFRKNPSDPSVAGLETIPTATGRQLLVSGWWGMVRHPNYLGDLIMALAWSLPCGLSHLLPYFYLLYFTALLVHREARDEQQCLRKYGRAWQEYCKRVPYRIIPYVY
Kind of series: Sterol 14-reductase assay with rat liver microsomes (substrate 4,4-dimethyl-5α-cholesta-7,14-dien-3β-ol, GLC). It is filed as biochemical, Sprague-Dawley rats.

The next series has as its system SD rats. Kind of series: Acute oral toxicity in SD rats. The class given is in vivo. The note with it: for general symptoms, weight change and lethal case over two weeks: rat, in vivo. As for the experimental part: (§1) Meanwhile, the toxicity of the compounds of the present invention was mvestigated as follows: i.e., the compounds were suspended into propylene glycol and then orally administered into each of 5 male and female SD rats at the age of 5-weeks that were fasted for 12 hours. Under the usual breeding conditions, general symptoms, weight change and lethal case of the above rats were monitored for two weeks. At the dose over 2,000 mg/kg of the compound nos. […] Rats were safe against the dose of 700 mg/kg of compound no. 8.

Series [2] can be described thus: Acute oral toxicity in SD rats. It is filed as in vivo. Particulars: rat, in vivo, po, rats. As for the experimental part: as §1
Another series concerns Syrian Golden Hamster. Put plainly: In vivo effect on plasma lipids and glucose in Syrian Golden Hamster. The note with it: for total cholesterol, LDL-cholesterol, and triglyceride levels (in words): Syrian Golden Hamster, compared with lovastatin; for Glucose, percent change in parentheses / HDL cholesterol, percent change in parentheses / LDL cholesterol, percent change in parentheses / Total cholesterol, percent change in parentheses / Trigly-ceride, percent change in parentheses: against normal diet control, 6.0 mg/kg/day; for Glucose / HDL cholesterol / LDL cholesterol / Total cholesterol / Trigly-ceride: normal diet + 6.0 mg/kg/day, oral, 14 days; for Glucose: hamster; for HDL cholesterol / LDL cholesterol / Total cholesterol / Trigly-ceride: hamster plasma. As to the method: In order to investigate the effect of the compound of formula (1) of the invention, the compound was orally administered into male Syrian Golden Hamsters having weights of 90~110 g and then blood was taken from each animal. Plasma lipids, i.e., total cholesterol, LDL-cholesterol, HDL-cholesterol and triglycerides were analyzed using an automatic analyzer (Automatic analyzer model Hitachi 7150).
Male Syrian Golden Hamsters weighing 90~110 g distributed from Samyuk Animal Laboratory, Seoul, Korea were bred under the following conditions: They were maintained under reverse light cycle (light cycle: from 6 P.M to 6 A.M; dark cycle: from 6 A.M. to 6 P.M.). The food and water were supplied at 10 A.M. The commercially available standard rodent chows were used. The hamsters were divided into 6 or 7 animals per group. The animals were fasted for 12 hours before administrating the drug. Then, dehydrocoridaline derivatives dissolved in a 0.25% methyl cellulose solution was administered orally for 14 days at the indicated time per a day. After fasting animals for 24 hours from the last administration, blood was extracted using a cardiac puncture and plasma was then isolated. Plasma lipids, i.e., total cholesterol, LDL-cholesterol, HDL-cholesterol and triglyceride values were analyzed using Automatic Analyzer (Hitachi 7150).

Where [3] appears, read: read-out: Enzyme Activity (relative in vitro activity for sterol 14-reductase, IC50 class).

Description for sterol 14-reductase: First, a screening system for sterol 14-reductase was constructed in which 4,4-dimethyl-5α-cholesta-7,14-dien-3β-ol is used as a substrate and then, the effect on the activity of sterol 14-reductase was investigated in the screening system.
The animals were fasted for 12 hours before excising liver tissues and then sacrificed by decapitation at midnight. An aqueous solution containing 0.25M of sucrose was injected into the hepatic portal vein to remove all the blood within the liver, and then, the liver was excised. The liver was homogenated with two volummes of buffer solution 1 (0.1 M potassium phosphate , 1 mM reduced glutathione, 0.5 mM EDTA, 20% (v/v) glycerol, pH 7.4) by repeating pestles over 10 times and then, centrifuged with 900×g for 5 minutes to give a supernatant. The supernatant was centrifuged with 12,000×g for 20 minutes. The supernatant obtained was ultracentrifuged with 105,000×g for 90 minutes to give a microsome which was used as an enzyme source of sterol 14-reductase. Assay against sterol 14-reductase was carried out as follows: 60 nmol of 4,4-dimethyl-5α-cholesta-7,14-dien-3β-ol and the extract from Corydalis Turtschaninowii Besser dissolved into DMSO were added to an assay mixture (total volume 1.0 ml) containing 2 mg of microsomal protein, 2 mM of NADPH and 25 mg of glucose plus 20 units of glucose oxidase with preincubations under nitrogen at 37° C. for 4 min unless otherwise specified to establish anaerobic condition. Buffer A (0.1M potassium phosphate buffer, pH 7.4, including 1 mM reduced glutathione, 0.5 mM EDTA, and 20% (v/v) glycerol) used for incubation had been equilibrated with nitrogen, and nitrogen was exchanged for air in all sealed reaction flasks prior to the start of incubations. Incubation of the complete mixture was carried out anaerobically in sealed flasks for 10 min at 37° C. unless otherwise indicated. Incubations were terminated by the addition of 1 ml of ethanolic KOH followed by heating under reflux for 10 min. Sterols were extracted four times with 4 ml of petroleum ether, and the solvent was evaporated to dryness under a nitrogen stream. The resulting residue was dissolved in 200-500 μl of n-hexane for quantification by GLC at high sensitive attenuation. The activity of sterol 14-reductase was determined with the amount of the substrate wherein the double bonds of 14-carbon were reduced (for the amount reduced by 1 mg of the microsome protein for 1 minute).

`CCOc1cc2c(cc1OCC)-c1c(CC)c3ccc(OCC)c(OCC)c3c[n+]1CC2` [Compound No. 5, 2,3,9,10-Tetraethoxy-13-ethylberberine]: the “cholesterol biosynthesis in human HepG2 cell line (in words)” value (“cholesterol biosynthesis” for short) in series [1] is on record as “markedly inhibited”. In addition, the IC50 at sterol 14-reductase (setting [3]) is ≤ 1 µM. Moreover, in the series with SD rats, the “general symptoms, weight change and lethal case over two weeks” value is “general symptoms and the body weight change of the animals were normal and the lethal case was not observed”. Besides, the median lethal dose (LD50) at 336 h in series [2] (female) was > 5000 mg/kg. Moreover, the LD50 at 336 h in series [2] (male) is > 5000 mg/kg. In addition, in the series with Syrian Golden Hamster, the “total cholesterol, LDL-cholesterol, and triglyceride levels (in words)” value (“total cholesterol, LDL-cholesterol” for short) is on record as “markedly decreased”; the “Glucose, percent change in parentheses” value is listed as -12.4%; the “HDL cholesterol, percent change in parentheses” value (from here on “HDL cholesterol, percent change”) is recorded as -3.2%; the “LDL cholesterol, percent change in parentheses” value (from here on “LDL cholesterol, percent change”) was -41.2%. Moreover, in the series on Syrian Golden Hamster, the “Total cholesterol, percent change in parentheses” value (from here on “Total cholesterol, percent change”) is on record as -23.5%; the “Trigly-ceride, percent change in parentheses” value (“Trigly-ceride, percent change” below) is listed as -28.5%; the Glucose was determined as 160.2 ± 20.9 mg/dL; the HDL cholesterol is 51.1 ± 3.0 mg/dL. In the series on Syrian Golden Hamster, the LDL cholesterol was 24.9 ± 3.0 mg/dL, the Total cholesterol was 97.0 ± 5.6 mg/dL and the Trigly-ceride turned out to be 94.7 ± 11.5 mg/dL.

For the compound `CCc1c2[n+](cc3c(OC)c(OC)ccc13)CCc1cc3c(cc1-2)OCO3` [Compound No. 6, 13-Ethylberberine], in series [1], the “cholesterol biosynthesis” value is reported as “markedly inhibited”. The IC50 at sterol 14-reductase (setting [3]) is ≤ 1 µM.

Consider `CCc1c2[n+](cc3c(OC)c(OC)ccc13)CCc1cc(OC)c(OC)cc1-2` [Compound No. 8, 13-Ethylpalmatine], for which the “cholesterol biosynthesis” value in series [1] is given as “markedly inhibited”. Besides, the IC50 at sterol 14-reductase (dissolved in DMSO, read-out: concentration of active ingredient in the assay at which 50% of inhibitory effect was observed (sterol 14-reductase)) is 100 to 3000 µM. In addition, the IC50 on sterol 14-reductase (setting [3]) was ≤ 1 µM. Moreover, the “safety of rats at single oral dose” value with SD rats (dose of 700 mg/kg, oral, SD rats) is given as “safe”. Also, in series [2] (female), the 50% lethal dose (LD50) at 336 h was > 760 mg/kg. The median lethal dose (LD50) at 336 h in series [2] (male) was > 925 mg/kg. For the same compound, in the series with Syrian Golden Hamster, the “total cholesterol, LDL-cholesterol” value is recorded as “markedly decreased”; the “Glucose, percent change in parentheses” value is listed as -10.9%; the “HDL cholesterol, percent change” value is given as -1.8%; the “LDL cholesterol, percent change” value is -42.0%. Moreover, in the series on Syrian Golden Hamster, the “Total cholesterol, percent change” value is -25.4%; the “Trigly-ceride, percent change” value is -31.7%; the Glucose came out at 162.2 ± 11.3 mg/dL; the HDL cholesterol was 47.5 ± 3.0 mg/dL. Moreover, in the series with Syrian Golden Hamster, the LDL cholesterol amounted to 24.5 ± 1.8 mg/dL, the Total cholesterol came out at 94.0 ± 6.6 mg/dL and the Trigly-ceride was determined as 90.4 ± 8.9 mg/dL.

On to `CCC1=C2c3cc(OC)c(OC)cc3CCN2C(CC(C)=O)c2c1ccc(OC)c2OC` (centres unmarked) [Compound No. 37, 8-Acetonyl-13-ethyldihydropalmatine], for which, in series [1], the “cholesterol biosynthesis” value is recorded as “markedly inhibited”. For the same compound, the IC50 at sterol 14-reductase (setting [3]) is ≤ 1 µM. In addition, in the series with SD rats, the “general symptoms, weight change and lethal case over two weeks” value was “general symptoms and the body weight change of the animals were normal and the lethal case was not observed”. The LD50 at 336 h in series [2] (female) was > 2000 mg/kg. Besides, the 50% lethal dose (LD50) at 336 h in series [2] (male) was > 2500 mg/kg. Besides, in the series on Syrian Golden Hamster, the “total cholesterol, LDL-cholesterol” value was “markedly decreased”; the “Glucose, percent change in parentheses” value is -23.0%; the “HDL cholesterol, percent change” value was “+2.0%”; the “LDL cholesterol, percent change” value was -52.1%. Moreover, in the series with Syrian Golden Hamster, the “Total cholesterol, percent change” value is -33.5%; the “Trigly-ceride, percent change” value was -48.1%; the Glucose worked out at 140.4 ± 15 mg/dL; the HDL cholesterol turned out to be 54.2 ± 3.0 mg/dL. In the series on Syrian Golden Hamster, the LDL cholesterol amounted to 20.2 ± 2.0 mg/dL, the Total cholesterol turned out to be 83.8 ± 5.6 mg/dL and the Trigly-ceride is 68.8 ± 11.5 mg/dL.

For the compound `CCC(=O)CC1c2c(ccc(OC)c2OC)C(CC)=C2c3cc(OC)c(OC)cc3CCN21` (centres unmarked) [Compound No. 38, 8-(butan-2-one-1-yl)-13-ethyldihydropalmatine], the “cholesterol biosynthesis” value in series [1] was “markedly inhibited”. For the same compound, the IC50 at sterol 14-reductase (setting [3]) is ≤ 1 µM.

As for `CCC1=C2c3cc(OC)c(OC)cc3CCN2Cc2c1ccc(OC)c2OC` [Compound No. 46, 13-Ethyldihydropalmatine], the “cholesterol biosynthesis” value in series [1] was “markedly inhibited”. Also, the IC50 at sterol 14-reductase (setting [3]) is ≤ 1 µM. Besides, the “general symptoms, weight change and lethal case over two weeks” value with SD rats is “general symptoms and the body weight change of the animals were normal and the lethal case was not observed”. Also, the LD50 at 336 h in series [2] (female) was > 3000 mg/kg. Moreover, the 50% lethal dose (LD50) at 336 h in series [2] (male) is > 3000 mg/kg. Besides, in the series on Syrian Golden Hamster, the “total cholesterol, LDL-cholesterol” value is “markedly decreased”; the “Glucose, percent change in parentheses” value is on record as -12.7%; the “HDL cholesterol, percent change” value is reported as -6.8%; the “LDL cholesterol, percent change” value is recorded as -50.7%. In the series with Syrian Golden Hamster, the “Total cholesterol, percent change” value is listed as -34.6%; the “Trigly-ceride, percent change” value was -35.6%; the Glucose came to 158.8 ± 16 mg/dL; the HDL cholesterol worked out at 49.2 ± 2.9 mg/dL. Also, in the series on Syrian Golden Hamster, the LDL cholesterol stood at 20.8 ± 2.3 mg/dL, the Total cholesterol was 82.4 ± 5.4 mg/dL and the Trigly-ceride was determined as 85.2 ± 11.0 mg/dL.

As to `CCOc1cc2c(cc1OCC)C1=C(CC)c3ccc(OCC)c(OCC)c3CN1CC2` [Compound No. 47, 13-Ethyl-2,3,9,10-tetraethoxydihydroprotoberberine], the “cholesterol biosynthesis” value in series [1] is given as “markedly inhibited”. Besides, the IC50 at sterol 14-reductase (setting [3]) is ≤ 1 µM.

For `CC[C@H](C)C(=O)O[C@H]1C[C@@H](C)C=C2C=C[C@H](C)[C@H](CC[C@@H]3C[C@@H](O)CC(=O)O3)[C@H]21` [lovastatin, reference compound], in the series on Syrian Golden Hamster, the “Glucose, percent change in parentheses” value is on record as “+1.0%”; the “HDL cholesterol, percent change” value is reported as -2.6%; the “LDL cholesterol, percent change” value was -29.1%; the “Total cholesterol, percent change” value was -22.7%. In the series on Syrian Golden Hamster, the Glucose worked out at 184.6 ± 23.2 mg/dL, the HDL cholesterol was 51.4 ± 2.6 mg/dL, the LDL cholesterol was found to be 29.9 ± 1.9 mg/dL and the Total cholesterol turned out to be 97.4 ± 3.4 mg/dL. Also, the Trigly-ceride in the series with Syrian Golden Hamster worked out at 182.6 ± 17.0 mg/dL.

By LD50 is commonly meant the dose expected to kill half of the subjects tested. Higher therefore signals a less toxic substance.
